We go through 1 substance from patent US20240139197A1, “INHIBITION OF KDM5A FOR PROMOTING ANTIGEN PRESENTATION, INCREASING CD8+ T CELL INFILTRATION AND BOOSTING ANTI-TUMOR IMMUNE RESPONSE” (The Wistar Institute of Anatomy and Biology, priority 2022, published 2024).

The test system of assay [1] is ID8 cells. As to the kind of experiment: cell viability by colony formation assay, ID8. It is filed as cell-based, mouse. Conditions: ID8, 10 μM, 8 days. As for the experimental part: FIG. 2A-FIG. 2J show KDM5A inhibition suppresses tumor growth in vivo in an immune-competent mouse model of ovarian cancer. (FIG. 2A) Expression of Kdm5a, H3K4me3, and a loading control β-actin in doxycycline-inducible shKdm5a ID8 mouse EOC cells treated with or without 2 μg/mL of doxycycline. (FIG. 2B) ID8 cells were plated into 24 well plates and treated with 2 μg/mL of doxycycline the same day. Cells were incubated for 8 days. Relative cell viability was determined by colony formation assay. (FIG. 2C) Expression of Kdm5a, H3K4me3, and a loading control β-actin in ID8 cells treated with 10uM CPI-455 or vehicle control. (FIG. 2D) ID8 cells were plated into 24 well plates and incubated with 10 μM CPI-455 for 8 days with fresh drug-containing media every 3 days. Relative cell viability was determined by colony formation assay. (FIG. 2E) Ascites produced in C57BL/6 mice injected with doxycycline-inducible shKdm5a ID8 cells treated with control or doxycycline containing food. (FIG. 2F) Quantification of ascites volumes from FIG. 2E. (FIG. 2G) Kaplan-Meier survival curves for the indicated groups. […] (FIG. 21) Quantification of ascites volumes from FIG. 2H. […] Data represent mean±SEM of three biological repeats or 5 mice per group; P-value was calculated by using a two-tailed Student t test except in FIG. 2G and FIG. 2J by log rank tests. […]

Assay [2] deals with H2-K1 on ID8 cells. As to the kind of experiment: cell surface MHC class I H2-K1 by FACS, ID8. Conditions: ID8, in response to IFNγ. The assay is classed as cell-based, mouse. The source says:
FIG. 4A-FIG. 4M show KDM5A regulates antigen processing and presentation pathway. (FIG. 4A) Experimental strategy used to identify Kdm5a direct target genes. […] (FIG. 4B) CUT&RUN tracks of the newly identified Kdm5a target gene H2-K1 for Kdm5a and H3K4me3 in ID8 cells. (FIG. 4C) Expression of H2-K1 in doxycycline-inducible shKdm5a ID8 cells, Kdm5a inhibitor CPI-455, or Kdm5a knockout cells with or without IFNγ stimulation determined by RT-qPCR. (FIG. 4D) Cell surface expression of H2-K1 in control and Kdm5a knockout ID8 cells with or without IFNy stimulation was determined by FACS analysis. (FIG. 4E) Quantification of FIG. 4D. (FIG. 4F) Cell surface expression of H2-K1 in control and doxycyclineinducible Kdm5a-knockdown ID8 cells with or without IFNγ stimulation was determined by FACS analysis. (FIG. 4G) Quantification of FIG. 4F. (FIG. 4H) Cell surface expression of H2-K1 in D8 cells treated with vehicle or CPI-455 with or without IFNγ stimulation was determined by FACS analysis. (FIG. 4I) Quantification of FIG. 4H; An isotype matched IgG was used as a negative control for all the FACS analysis. […] Data represent mean±SEM of three biological repeats; P-value was calculated by using a two-tailed Student t test except in FIG. 4L by using Pearson r analysis test and FIG. 4M by using Fisher's exact test. […]
Background: A flow cytometer gives signals particle by particle.

The test system of assay [3] is H3K4me3 in ID8 cells. Description: immunoblot of H3K4me3, ID8. It is filed as cell-based, mouse. Conditions: ID8, 10 μM. On the procedure: FIG. 2A-FIG. 2J show KDM5A inhibition suppresses tumor growth in vivo in an immune-competent mouse model of ovarian cancer. (FIG. 2A) Expression of Kdm5a, H3K4me3, and a loading control β-actin in doxycycline-inducible shKdm5a ID8 mouse EOC cells treated with or without 2 μg/mL of doxycycline. (FIG. 2B) ID8 cells were plated into 24 well plates and treated with 2 μg/mL of doxycycline the same day. Cells were incubated for 8 days. Relative cell viability was determined by colony formation assay. (FIG. 2C) Expression of Kdm5a, H3K4me3, and a loading control β-actin in ID8 cells treated with 10uM CPI-455 or vehicle control. (FIG. 2D) ID8 cells were plated into 24 well plates and incubated with 10 μM CPI-455 for 8 days with fresh drug-containing media every 3 days. Relative cell viability was determined by colony formation assay. (FIG. 2E) Ascites produced in C57BL/6 mice injected with doxycycline-inducible shKdm5a ID8 cells treated with control or doxycycline containing food. (FIG. 2F) Quantification of ascites volumes from FIG. 2E. […] (FIG. 21) Quantification of ascites volumes from FIG. 2H. […] Data represent mean±SEM of three biological repeats or 5 mice per group; P-value was calculated by using a two-tailed Student t test except in FIG. 2G and FIG. 2J by log rank tests.
Cells were trypsinized and washed two times with PBS. […] Protein concentration was measured by the BCA assay (Pierce, Cat #23225). […]

For assay [4], the system named is ID8 cells. As to the kind of experiment: syngeneic ovarian cancer mouse model, CPI-455 treatment. The assay is classed as in vivo. To be noted: 50 mg/kg i.p., immuno-competent C57BL/6 mice bearing ID8.

Take CPI-455: in assay [1], the cell viability result is given as “did not affect cell viability”. Moreover, the “MHC class I presence on cell surface” value in assay [2] is reported as “increased MHC class I presence on cell surface”. For the same substance, the H3K4me3 levels result in assay [3] is reported as “increase H3K4me3 levels”. Further, in assay [4], the ascites production result is given as “significantly reduced ascites production” and the “survival of tumor bearing mice” value is given as “improved the survival”.
